Experimental data reported in PubChem BioAssay AID1963828 (Molecular Pharmacology Branch, DTP, NCI, 2024).

Tested on: 991263-137-R1-J2-PDC complex spheroid viability
Assay: Anticancer human tumor 991263-137-R1-J2-PDC patient-derived colon adenocarcinoma cell line growth inhibition [POLQ]
Conditions: for IC50: curve of first compound; for viability, T/C: stronger effect = lower value
How it was run: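 PDC + HUVEC + MSC complex spheroids; POLQ inhibitors ± partner drugs; top conc. at/near clinical Cmax, else 10 microM (SN-38 1 microM), half-log dilutions; 37 degrees C, 5% CO2.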

[1] = second compound 0.0316 µM, first compound 0.0316 µM
[2] = second compound 0.0316 µM, first compound 0.1 µM
[3] = second compound 0.0316 µM, first compound 0.316 µM
[4] = second compound 0.0316 µM, first compound 1 µM
[5] = second compound 0.0316 µM, first compound 3.16 µM
[6] = second compound 0.0316 µM, first compound 10 µM
[7] = second compound 0.1 µM, first compound 0.0316 µM
[8] = second compound 0.1 µM, first compound 0.1 µM
[9] = second compound 0.1 µM, first compound 0.316 µM
[10] = second compound 0.1 µM, first compound 1 µM
[11] = second compound 0.1 µM, first compound 3.16 µM
[12] = second compound 0.1 µM, first compound 10 µM
[13] = second compound 0.316 µM, first compound 0.0316 µM
[14] = second compound 0.316 µM, first compound 0.1 µM
[15] = second compound 0.316 µM, first compound 0.316 µM
[16] = second compound 0.316 µM, first compound 1 µM
[17] = second compound 0.316 µM, first compound 3.16 µM
[18] = second compound 0.316 µM, first compound 10 µM
[19] = second compound 1 µM, first compound 0.0316 µM
[20] = second compound 1 µM, first compound 0.1 µM
[21] = second compound 1 µM, first compound 0.316 µM
[22] = second compound 1 µM, first compound 1 µM
[23] = second compound 1 µM, first compound 3.16 µM
[24] = second compound 1 µM, first compound 10 µM
[25] = second compound 3.16 µM, first compound 0.0316 µM
[26] = second compound 3.16 µM, first compound 0.1 µM
[27] = second compound 3.16 µM, first compound 0.316 µM
[28] = second compound 3.16 µM, first compound 1 µM
[29] = second compound 3.16 µM, first compound 3.16 µM
[30] = second compound 3.16 µM, first compound 10 µM
[31] = second compound 10 µM, first compound 0.0316 µM
[32] = second compound 10 µM, first compound 0.1 µM
[33] = second compound 10 µM, first compound 0.316 µM
[34] = second compound 10 µM, first compound 1 µM
[35] = second compound 10 µM, first compound 3.16 µM
[36] = second compound 10 µM, first compound 10 µM
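Also: spheroids exposed to compounds for 7 days before readout.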
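For viability, T/C in this document: 100% = DMSO vehicle control viability.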

CC1COCCN1c1cc(C2(O)CC3CCC(C2)O3)c2cnn(-c3ccn[nH]3)c2n1 (stereo unspecified) + Nc1ccc(C#CCN(C(=O)Cc2ncc(C(F)(F)F)cc2C(F)(F)F)c2ccc(F)cc2)nn1
IC50 (second compound 0.0316 µM): 1970 nM
IC50 (second compound 0.1 µM): 1830 nM
IC50 (second compound 0.316 µM): 1970 nM
IC50 (second compound 1 µM): 1810 nM
IC50 (second compound 3.16 µM): 1250 nM
IC50 (second compound 10 µM): 882 nM
viability, T/C [1]: 105%
viability, T/C [2]: 104%
viability, T/C [3]: 83%
viability, T/C [4]: 62.2%
viability, T/C [5]: 42.5%
viability, T/C [6]: 30.5%
viability, T/C [7]: 88.2%
viability, T/C [8]: 97.1%
viability, T/C [9]: 80.2%
viability, T/C [10]: 59%
viability, T/C [11]: 43.2%
viability, T/C [12]: 30.8%
viability, T/C [13]: 109%
viability, T/C [14]: 108%
viability, T/C [15]: 89.9%
viability, T/C [16]: 63.4%
viability, T/C [17]: 40.8%
viability, T/C [18]: 33.1%
viability, T/C [19]: 110%
viability, T/C [20]: 101%
viability, T/C [21]: 81.5%
viability, T/C [22]: 61.5%
viability, T/C [23]: 38.9%
viability, T/C [24]: 32.7%
viability, T/C [25]: 96.8%
viability, T/C [26]: 88.7%
viability, T/C [27]: 77.4%
viability, T/C [28]: 52.8%
viability, T/C [29]: 36.5%
viability, T/C [30]: 31%
viability, T/C [31]: 78.3%
viability, T/C [32]: 82.1%
viability, T/C [33]: 67.3%
viability, T/C [34]: 45.7%
viability, T/C [35]: 36.4%
viability, T/C [36]: 24.5%

Nc1ccn(C2OC(CO)C(O)C2(F)F)c(=O)n1 (stereo unspecified) + Nc1ccc(C#CCN(C(=O)Cc2ncc(C(F)(F)F)cc2C(F)(F)F)c2ccc(F)cc2)nn1
IC50 (second compound 0.0316 µM): 5740 nM
IC50 (second compound 0.1 µM): > 10000 nM
IC50 (second compound 0.316 µM): 5300 nM
IC50 (second compound 1 µM): > 10000 nM
IC50 (second compound 3.16 µM): > 10000 nM
IC50 (second compound 10 µM): > 10000 nM
viability, T/C [1]: 96.1%
viability, T/C [2]: 75.6%
viability, T/C [3]: 64.4%
viability, T/C [4]: 58.4%
viability, T/C [5]: 55.2%
viability, T/C [6]: 45.8%
viability, T/C [7]: 89.6%
viability, T/C [8]: 77.5%
viability, T/C [9]: 59.2%
viability, T/C [10]: 61.7%
viability, T/C [11]: 59.9%
viability, T/C [12]: 47.6%
viability, T/C [13]: 94.3%
viability, T/C [14]: 74.1%
viability, T/C [15]: 65.9%
viability, T/C [16]: 64.2%
viability, T/C [17]: 57.3%
viability, T/C [18]: 43.1%
viability, T/C [19]: 92.6%
viability, T/C [20]: 68.3%
viability, T/C [21]: 69.5%
viability, T/C [22]: 59.8%
viability, T/C [23]: 55.8%
viability, T/C [24]: 50.2%
viability, T/C [25]: 104%
viability, T/C [26]: 82.1%
viability, T/C [27]: 69.4%
viability, T/C [28]: 62.5%
viability, T/C [29]: 63.4%
viability, T/C [30]: 51.2%
viability, T/C [31]: 104%
viability, T/C [32]: 89.6%
viability, T/C [33]: 71.1%
viability, T/C [34]: 69.5%
viability, T/C [35]: 64.3%
viability, T/C [36]: 60.7%

CC1COCCN1c1cc(-c2ccnn2C)c2ccnc(-c3ccn[nH]3)c2n1 (stereo unspecified) + Cc1cccc(N(C)C(=O)C2C(O)CCN2c2nc(C)cc(C(F)(F)F)c2C#N)c1
IC50 (second compound 0.0316 µM): 948 nM
IC50 (second compound 0.1 µM): 1000 nM
IC50 (second compound 0.316 µM): 770 nM
IC50 (second compound 1 µM): 990 nM
IC50 (second compound 3.16 µM): 1430 nM
IC50 (second compound 10 µM): 851 nM
viability, T/C [1]: 99.7%
viability, T/C [2]: 96.8%
viability, T/C [3]: 81.5%
viability, T/C [4]: 47.6%
viability, T/C [5]: 36.2%
viability, T/C [6]: 29.4%
viability, T/C [7]: 125%
viability, T/C [8]: 97.6%
viability, T/C [9]: 81.8%
viability, T/C [10]: 45.2%
viability, T/C [11]: 35.7%
viability, T/C [12]: 33.5%
viability, T/C [13]: 94.4%
viability, T/C [14]: 110%
viability, T/C [15]: 75.4%
viability, T/C [16]: 44.3%
viability, T/C [17]: 35.1%
viability, T/C [18]: 28.8%
viability, T/C [19]: 90.3%
viability, T/C [20]: 99.3%
viability, T/C [21]: 64.3%
viability, T/C [22]: 53.3%
viability, T/C [23]: 39.3%
viability, T/C [24]: 30.7%
viability, T/C [25]: 88.8%
viability, T/C [26]: 114%
viability, T/C [27]: 89%
viability, T/C [28]: 58.2%
viability, T/C [29]: 32.9%
viability, T/C [30]: 31.6%
viability, T/C [31]: 103%
viability, T/C [32]: 104%
viability, T/C [33]: 78.3%
viability, T/C [34]: 46%
viability, T/C [35]: 34.9%
viability, T/C [36]: 32.1%
